# Laboratory results from ChEMBL document CHEMBL5029141, “Three-Dimensional Proteome-Wide Scale Screening for the 5-Alpha Reductase Inhibitor Finasteride: Identification of a Novel Off-Target” (J Med Chem, 2021).
# The source made the active and inactive calls. The rule behind the calls is not given here.
# Assays:
# [1] = biological target: T1, Phenylethanolamine N-methyltransferase (Homo sapiens) (UniProt P11086); assay: Inhibition of human recombinant PNMT using AdoMet and DL-norepinephrine hydrocloride as substrate preincubated for 30 mins followed by substrate addition and measured after 30 mins by fluorescence based analysis relative to control; details: time 1.0 hrs
# T1 sequence (whole entry): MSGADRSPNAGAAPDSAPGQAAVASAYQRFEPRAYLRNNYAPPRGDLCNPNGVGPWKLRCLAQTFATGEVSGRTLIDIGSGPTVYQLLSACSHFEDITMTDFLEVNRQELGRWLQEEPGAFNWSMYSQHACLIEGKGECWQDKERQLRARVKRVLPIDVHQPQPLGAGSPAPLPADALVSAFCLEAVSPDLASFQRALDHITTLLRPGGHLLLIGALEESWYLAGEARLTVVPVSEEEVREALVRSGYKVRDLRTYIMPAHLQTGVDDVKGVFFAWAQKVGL
# Rattus norvegicus [2] = assay: In vivo inhibition of PNMT in Sprague-Dawley rat assessed as decrease in epinephrine level in adrenal gland at 1 mg, sc once daily treated for 20 days and measured after 24 hrs post last dose by liquid chromatography tandem mass spectrometry analysis; type: functional, organism-based; details: time 20.0 day
# Rattus norvegicus [3] = assay: In vivo inhibition of PNMT in Sprague-Dawley rat assessed as increase in norepinephrine level in adrenal gland at 1 mg, sc administered once daily for 20 days and measured after 24 hrs post last dose by liquid chromatography tandem mass spectrometry analysis; type: functional, organism-based; details: time 20.0 day
# Rattus norvegicus [4] = assay: Effect on PNMT protein expression level in Sprague-Dawley rat at 1 mg, sc once daily treated for 20 days and measured after 24 hrs post last dose by western blot analysis; type: functional, organism-based; details: time 20.0 day
Compound,inhibition [1] [%],Activity (Rattus norvegicus [2]),Activity (Rattus norvegicus [3]),Activity (Rattus norvegicus [4])
CC(C)(C)NC(=O)[C@H]1CC[C@H]2[C@@H]3CC[C@H]4NC(=O)C=C[C@]4(C)[C@H]3CC[C@]12C,> 30,Active,Active,inactive
CC(N)c1cccc(Cl)c1Cl (stereo not given),60,,,
